Laboratory results taken from patent US5668295A, “Protein involved in nicotine synthesis, DNA encoding, and use of sense and antisense DNAs corresponding thereto to affect nicotine content in transgenic tobacco cells and plants” (Philip Morris Incorporated, priority 1995, dated 1997).

Columns and labels:
[1] = test system: putrescine N-methyltransferase ("PMT") / highly purified tobacco protein; test: Substrate specificity test: analogs substituted for putrescine in the standard PMT assay; type: biochemical, Nicotiana tabacum L. var. Burley 21; conditions: for radioactive product formed when substituted for putrescine: standard PMT assay, 30° C., 30 minutes
Experimental: (§1) The reaction was started by addition of the enzyme sample, and it was carried out at 30° C. for 30 minutes. The reaction was stopped by addition of 0.5 ml of 10% (w/v) NaOH saturated with NaCl.
(§2) The radioactive product, N-[^14 C-methyl]putrescine, was separated from the substrate by solvent extraction into chloroform. After vortexing the stopped reaction mixture with 1 ml of chloroform for 90 seconds, the organic and aqueous phases were separated by centrifugation at 1600×gav for 5 minutes. A 0.5 ml aliquot of the organic phase was then assayed. The 0.5 ml aliquot of the organic phase was added to 9.5 ml of liquid scintillation cocktail (Beckman Instruments, Columbia, Md.) and radioactivity was measured by standard procedures with a liquid scintillation counter.
(§3) One unit of apparent PMT activity is defined as one nanomole of product formed per 30 min., at 30° C.
(§4) Negative controls were included with all PMT assays. Negative controls consisted of reaction mixtures minus enzyme, or reaction stopped with NaOH at time zero.
Substrate specificity tests were carried out with the highly purified tobacco protein of the present invention. 1,3-Diaminopropane and 1,5-diaminopentane (chemical analogs of putrescine) phosphatidylethanolamine (a methyl group acceptor), and N-methylputrescine(the normal product of PMT), were compared with putrescine (1,4-diaminobutane) for ability to serve as an apparent substrate for PMT.

[2] = test system: putrescine N-methyltransferase ("PMT") / subject tobacco protein; test: Apparent Km determination in the apparent PMT activity assay; type: biochemical, Nicotiana tabacum L. var. Burley 21; conditions: partially purified tobacco protein; S-adenosylmethionine in excess
Experimental: as §1, §2, §3, §4

Compound | radioactive product formed when substituted for putrescine [1] | also measured
phosphatidylethanolamine | no detectable amount of radioactive product was formed | 
CNCCCCN [N-methylputrescine] |  | radioactive product formation relative to that observed with putrescine ([1]; substituted for putrescine in the PMT assay): less than 6%
NCCCN [1,3-diaminopropane, 1,3-Diaminopropane] | no detectable amount of radioactive product was formed | 
NCCCCN [putrescine, 1,4-diaminobutane] |  | Km [2]: ~400 µM
NCCCCCN [1,5-diaminopentane] | no detectable amount of radioactive product was formed | 
